One experiment deals with DU145 tumor. Nature of the experiment: in vivo Raman imaging of tumor-bearing mice. More on the design: species or system NU/J nude mice. Conditions: 2 h after IV injection of 0.0125 mmol kg-1. As for the experimental part: (§1) To further evaluate the ability of the nanoSABER probe to delineate legumain‐overexpressing tumors, in vivo Raman imaging of tumors of mice inoculated with DU145 and LNCaP cells was performed (Figure 6a). The Raman images were captured 2 h after the intravenous (IV) injection of the nanoSABER probe. […] Our results validated that nanoSABER experienced tumor legumain‐triggered self‐assembly into alkyne‐dimer nanoparticles that effectively generated distinct and higher Raman signals in DU145 tumors. To validate our findings, we included a control group that received a PBS injection instead of the nanoSABER probes. In both types of tumors, no Raman signal was detected in the control group (Figure S15, Supporting Information), further confirming that the observed signals in the experimental groups were indeed attributable to the legumain‐instructed self‐assembly of alkyne‐dimer nanoparticles.
(§2) All animal experiments were approved by an institutional animal care and use committee (IACUC) protocol. NU/J nude mice (male, 6–8 weeks old) were subcutaneously injected with 1 × 10^6 DU145 or LNCaP cells in the right flank. Once the tumor reached a volume of 100–200 mm^3, mice were IV injected with 0.0125 mmol kg^–1 nanoSABER or PBS (control group). After 2 h, Raman imaging was performed to determine the amount of intracellular self‐assembly within the tumors.

In the next experiment the test system is LNCaP tumors. Briefly: in vivo Raman imaging of tumor-bearing mice. As to conditions: 2 h after IV injection of 0.0125 mmol kg-1, compared with DU145. Further details: species or system NU/J nude mice. As for the experimental part:
as §1, §2

For a further experiment, the system named is DU145 tumors. Briefly: ex vivo Raman imaging of excised tumor sections with MCR analysis. Type of experiment: in vivo, NU/J nude mice. The protocol: Ex vivo Raman imaging was conducted on the tumor excised from the tumor‐bearing mice at 2 h post‐administration of nanoSABER (Figure 6b–d). To distinguish the probe signal from endogenous autofluorescence and Raman‐active molecules in the tissue matrix, multivariate curve resolution (MCR) analysis was performed on the spectral dataset recorded from the Raman‐mapped tumor sections. MCR is designed to tackle such problems by expressing the original data through a bilinear model of pure component meaningful contributions.^[ [43] ^] Tissue sections were divided into five groups: DU145 control, DU145‐nanoSABER, DU145‐Scr, LNCaP control, and LNCaP‐nanoSABER, with the control group representing mice injected with 100 µL of PBS vehicle. Collected Raman spectra were divided into the above‐mentioned classes. The tumor dataset was also supplemented with spectra from the quartz coverslip and a separate class was created to preclude the impact of background spectral features in the ensuing analysis. […] Since we are particularly interested in the wavenumber features in the cell‐silent region (i.e., the nanoSABER‐specific bands in the otherwise biologically silent spectral region), MCR2 serves as the principal differentiator.
To create a readily interpretable two‐dimensional (2D) visualization plot, we plotted MCR2 scores against that of MCR3, which contains primarily tissue‐characteristic and background features (Figure 6c). […] The highest MCR2 and MCR3 scores for the quartz‐only spectra were used as the lower and upper thresholds, respectively, to depict significant contributions from the individual components. […] This is indicative of a 100% specificity of the nanoSABER probe, without secondary non‐specific spectra from any of the other tumor treatment classes in the ROI. Moreover, 15% of all spectra obtained from mice with DU145 tumors treated with the nanoSABER probe were situated within the ROI, which confirms the high penetration efficiency of the nanoprobes. […]

A further experiment relates to DU145 cells. Briefly: confocal Raman imaging of cells. Type of experiment: cell-based. As to conditions: 100 µM, 3 h, then fresh media 30 min; fixed cells; DU145, legumain overexpressing. The protocol: (§3) Raman measurements were performed on cells cultured on quartz slides. Cells were incubated with 100 µM nanoSABER probe solution for 3 h, then fresh media was added and incubation was continued for an extra 30 min. Subsequently, the cells were washed three times with phosphate‐buffered saline (PBS), fixed with 4% paraformaldehyde (PFA) for 20 min, and washed with PBS again. Finally, cells were imaged using a confocal Raman microscope. Cell boundaries were constructed using the Raman peak at 1440 cm^−1 characteristic of intrinsic cellular signals.^[ [29] ^] […] These spectral features indicate legumain‐mediated intracellular self‐assembly of nanoSABER into alkyne‐dimer nanoparticles in DU145 cells. The Raman mapping results were consistent with our in vitro solution‐based measurements (Figure 2f) where the nitrile peak diminished after the formation of alkyne‐dimer.
(§4) Raman spectra of all synthesized peptides were acquired using a 785 nm laser and a 50× objective. The acquisition time was 10 s with 5 repetitions. All spectra were processed using custom‐written scripts in MATLAB for a tenth‐order least‐squares polynomial baseline correction with a moving window of 50. All Raman cellular imaging maps were acquired using 785 nm laser excitation and a 60× water immersion objective. For each acquisition time, the number of accumulations were 6 s and 8 acquisitions, respectively. For sample preparation, 1 × 10^5 cells were cultured in six‐well plates containing 10×10 mm quartz slides for 24 h. Cells were incubated with 100 µM of nanoSABER or Scr nanoprobe for 3 h followed by replacement with fresh media and additional incubation for 30 min. Cells were washed with PBS three times and then fixed with 4 % paraformaldehyde (PFA) for 20 min, resuspended back in PBS, and then imaged using a confocal Raman microscope. […] For each group, three independent experiments were performed, and from each pellet, we recorded Raman spectra from eight different positions. […]

A further experiment deals with LNCaP cells. Briefly: confocal Raman imaging of cells. Type of experiment: cell-based. As to conditions: 100 µM, 3 h, then fresh media 30 min, fixed cells, legumain low-expressing. As for the experimental part:
as §3, §4

The subject of another experiment is RWPE1 cells. Briefly: confocal Raman imaging of cells. Conditions: 100 µM, 3 h, then fresh media 30 min; fixed cells; RWPE1, normal prostate epithelium. Type of experiment: cell-based. The protocol:
as §3, §4

As to “Ac‐Arg‐Arg‐Arg‐Arg‐Arg‐Arg‐Ala‐Ala‐Asn‐Cys(StBu)‐Pra‐Lys‐CBT [nanoSABER]”, in the experiment with DU145 tumor, the “Raman signal of the alkyne peak at 2120 cm-1 in the tumor” value is on record as “Intense Raman signal”. Further, the “Raman signal intensity within the tumor” value with LNCaP tumors is on record as “significantly weaker”. Further, the “average ratio of alkyne to nitrile Raman peak intensity of spectra within the ROI” value in the experiment with DU145 tumors (DU145 tumors excised 2 h after IV 0.0125 mmol kg-1) was determined as 1.5. Further, in the experiment with DU145 tumors (DU145 tumors excised 2 h after IV 0.0125 mmol kg-1, 12 µm cryosections), the “share of all spectra situated within the ROI” value was determined as 15%. Besides, the “specificity (spectra in the ROI of MCR2 versus MCR3 score plot)” value with DU145 tumors (tumors excised 2 h after IV 0.0125 mmol kg-1, 12 µm cryosections) is recorded as 100%. Moreover, the “Raman map, alkyne 2120 cm-1 and nitrile 2230 cm-1 signals” value in the experiment with DU145 cells is on record as “undetectable signal levels at 2230 cm^−1”. The “Raman map, alkyne and nitrile signals” value in the experiment with LNCaP cells was “signals for both alkyne and nitrile groups from the nanoprobe were observed”; in the experiment with RWPE1 cells, “signals for both alkyne and nitrile groups from the nanoprobe were observed”.

The record behind these values is publication PMC10700673, “A Smart Intracellular Self‐Assembling Bioorthogonal Raman Active Nanoprobe for Targeted Tumor Imaging” (Advanced Science, 2023).
